The data set can be described thus: Solubility of DEX in oils (shake flask). As to conditions: Labrafil M1944 CS versus medium-chain triglycerides, soybean oil, olive oil; 37 °C, 72 h. The data set is classed as physicochemical. On the procedure:
The solubility of drug in oils is the basis for the selection of the oil phase. The solubility of DEX in various oils, including medium-chain triglycerides, soybean oil, olive oil, and Labrafil® M1944 CS was determined by the shake flask method. Briefly, an excessive amount of DEX was added to 1mL of oil in an Eppendorf tube and mixed in a water bath sonication. Then the tubes were placed in a water bath shaker at 37 ± 0.5 °C. After shaking for 72 h, the samples were centrifuged at 10,000 rpm for 10 min. The supernatant was extracted with ethanol solution by sonicating for 20 min and centrifuging at 10,000 rpm for 10 min. The DEX concentration in the supernatant was determined by high-performance liquid chromatography. […] Next, the effect of the amount of Labrafil® M1944 CS content on the physicochemical properties of the DEX NEs was screened (Table S1). When the amount of Labrifil® M 1944 CS was 50 mg, DEX NEs had higher drug content (0.64±0.003mg/mL) and EE (91.3±2.8%), and this formulation was selected to further prepare DEX SC-NEs.

SMILES strings stand for the structures. Entries after “also recorded” stand apart in the source; their conditions may differ.

Turning to `C[C@@H]1C[C@H]2[C@@H]3CCC4=CC(=O)C=C[C@]4(C)[C@@]3(F)[C@@H](O)C[C@]2(C)[C@@]1(O)C(=O)CO` [DEX, Dexamethasone], the solubility in oil entry is listed as “high solubility; also recorded: highest”.

(Values after PMC10964573, “OCTN2- and ATB^0,+-targeted nanoemulsions for improving ocular drug delivery” (Journal of Nanobiotechnology, 2024).)
